Assay results: PubChem BioAssay (NCI)
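Method: 48-hour compound exposure of cells in 96-well plates, five concentrations, linear interpolation of endpoints. GI50 is the concentration that inhibits growth by half. TGI: concentration producing complete growth inhibition.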

Key:
Test in all cases: NCI anticancer screen, dose series, 48 h
[1] = tested on: COLO 205 colon
[2] = tested on: ACHN renal
[3] = tested on: PC-3 prostate
[4] = tested on: U251 CNS
[5] = tested on: T-47D breast
[6] = tested on: OVCAR-4 ovarian
[7] = tested on: SK-OV-3 ovarian
[8] = tested on: MCF7 breast
[9] = tested on: LOX IMVI melanoma
[10] = tested on: SW-620 colon
[11] = tested on: BT-549 breast
[12] = tested on: DU-145 prostate
[13] = tested on: MDA-MB-231 breast
[14] = tested on: SF-295 CNS
[15] = tested on: CCRF-CEM leukemia
[16] = tested on: HS 578T breast
[17] = tested on: MDA-MB-435
[18] = tested on: NCI-H226 lung
[19] = tested on: NCI-H23 lung
[20] = tested on: CAKI-1 renal
[21] = tested on: NCI-H460 lung
[22] = tested on: HL-60(TB) leukemia
[23] = tested on: TK-10 renal
[24] = tested on: SF-268 CNS
[25] = tested on: HCC-2998 colon
[26] = tested on: SK-MEL-2 melanoma
[27] = tested on: NCI-H522 lung
[28] = tested on: SN12C renal
[29] = tested on: UO-31 renal
[30] = tested on: MALME-3M melanoma
[31] = tested on: RPMI-8226 leukemia
[32] = tested on: SK-MEL-5 melanoma
[33] = tested on: HCT-116 colon
[34] = tested on: OVCAR-5 ovarian
[35] = tested on: HCT-15 colon
[36] = tested on: SNB-19 CNS
[37] = tested on: 786-0 renal
[38] = tested on: EKVX NSCLC
[39] = tested on: UACC-257 melanoma
[40] = tested on: HOP-92 NSCLC
[41] = tested on: A498 renal
[42] = tested on: SNB-75 CNS
[43] = tested on: A549 NSCLC
[44] = tested on: SR leukemia
[45] = tested on: UACC-62 melanoma
[46] = tested on: OVCAR-8 ovarian
[47] = tested on: OVCAR-3 ovarian
[48] = tested on: HOP-62 NSCLC
[49] = tested on: HT29 colon
[50] = tested on: SF-539 CNS
[51] = tested on: M14 melanoma
[52] = tested on: RXF 393 renal
[53] = tested on: IGROV1 ovarian
[54] = tested on: MOLT-4 leukemia
[55] = tested on: KM12 colon

SMILES: COc1ccc(NC(=O)c2sc3nc(C)c(C(=O)/C=C/c4ccccc4)cc3c2N)cc1
- GI50 [1]: 1430 nM
- TGI [1]: 5180 nM
- GI50 [2]: 888 nM
- TGI [2]: 1740 nM
- GI50 [3]: 1250 nM
- TGI [3]: 3890 nM
- GI50 [4]: 889 nM
- TGI [4]: 1680 nM
- GI50 [5]: 1250 nM
- TGI [5]: 4370 nM
- GI50 [6]: 4430 nM
- TGI [6]: > 50000 nM
- GI50 [7]: 3330 nM
- TGI [7]: 12700 nM
- GI50 [8]: 815 nM
- TGI [8]: 6000 nM
- GI50 [9]: 863 nM
- TGI [9]: 1610 nM
- GI50 [10]: 966 nM
- TGI [10]: 2240 nM
- GI50 [11]: 938 nM
- TGI [11]: 2230 nM
- GI50 [12]: 1300 nM
- TGI [12]: 3720 nM
- GI50 [13]: 1760 nM
- TGI [13]: 12600 nM
- GI50 [14]: 1870 nM
- TGI [14]: 9200 nM
- GI50 [15]: 1260 nM
- TGI [15]: 9940 nM
- GI50 [16]: 2050 nM
- TGI [16]: > 50000 nM
- GI50 [17]: 1040 nM
- TGI [17]: 2960 nM
- GI50 [18]: 1110 nM
- TGI [18]: 2870 nM
- GI50 [19]: 1570 nM
- TGI [19]: 6090 nM
- GI50 [20]: 953 nM
- TGI [20]: 1820 nM
- GI50 [21]: 931 nM
- TGI [21]: 2080 nM
- GI50 [22]: 971 nM
- TGI [22]: 2500 nM
- GI50 [23]: 1350 nM
- TGI [23]: 3590 nM
- GI50 [24]: 1570 nM
- TGI [24]: 5930 nM
- GI50 [25]: 901 nM
- TGI [25]: 1760 nM
- GI50 [26]: 3780 nM
- TGI [26]: 17500 nM
- GI50 [27]: 943 nM
- TGI [27]: 2420 nM
- GI50 [28]: 1100 nM
- TGI [28]: 2850 nM
- GI50 [29]: 748 nM
- TGI [29]: 1440 nM
- GI50 [30]: 1930 nM
- TGI [30]: 21600 nM
- GI50 [31]: 860 nM
- TGI [31]: 2740 nM
- GI50 [32]: 2030 nM
- TGI [32]: 7220 nM
- GI50 [33]: 849 nM
- TGI [33]: 1780 nM
- GI50 [34]: 1110 nM
- TGI [34]: 3260 nM
- GI50 [35]: 892 nM
- TGI [35]: 2070 nM
- GI50 [36]: 1300 nM
- TGI [36]: 4020 nM
- GI50 [37]: 821 nM
- TGI [37]: 1670 nM
- GI50 [38]: 1620 nM
- TGI [38]: 8850 nM
- GI50 [39]: 1190 nM
- TGI [39]: 3560 nM
- GI50 [40]: 1390 nM
- TGI [40]: 6650 nM
- GI50 [41]: 890 nM
- TGI [41]: 3220 nM
- GI50 [42]: 1220 nM
- TGI [42]: 3530 nM
- GI50 [43]: 749 nM
- TGI [43]: 2130 nM
- GI50 [44]: 1070 nM
- TGI [44]: 4000 nM
- GI50 [45]: 934 nM
- TGI [45]: 1960 nM
- GI50 [46]: 1420 nM
- TGI [46]: 5220 nM
- GI50 [47]: 1090 nM
- TGI [47]: 2730 nM
- GI50 [48]: 1260 nM
- TGI [48]: 3160 nM
- GI50 [49]: 883 nM
- TGI [49]: 1940 nM
- GI50 [50]: 951 nM
- TGI [50]: 1840 nM
- GI50 [51]: 1750 nM
- TGI [51]: 10300 nM
- GI50 [52]: 820 nM
- TGI [52]: 1620 nM
- GI50 [53]: 859 nM
- TGI [53]: 2090 nM
- GI50 [54]: 1430 nM
- TGI [54]: > 50000 nM
- GI50 [55]: 897 nM
- TGI [55]: 1870 nM
